The values that follow come from PubChem BioAssay AID2387 (Broad Institute, 2010).

Active and inactive are the calls of the source.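 How the source made its calls: active means fitted EC50 no more than tenfold above the highest tested concentration; inconclusive means flat fit with 30 to 70% signal loss, or poor fit; inactive means the rest.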

For the assay, the system named is Candida albicans CaCi-2 growth (no fluconazole), Alamar Blue. Nature of the assay: intrinsic antifungal toxicity in Candida, azole-free – CaCi-2 strain, Alamar Blue fluorescence, counter-screen for fluconazole resistance reversal project, dose response (AID 2387). The settings on record: C. albicans CaCi-2 (fluconazole-resistant clinical isolate) growth without fluconazole, 48 h.
On to `N/C(Cc1ccc(Cl)c(Cl)c1)=N\OC(=O)c1cccs1`, for which the EC50 is > 16 µM (inactive).

`Oc1c(CN2CCN(c3ccc(F)cc3)CC2)cc(Cl)c2cccnc12`: the concentration giving a half-maximal response (EC50) is 2.74 µM.

Consider `CCOc1ccc(-c2ccc(NS(=O)(=O)c3ccc([N+](=O)[O-])cc3)cc2)nn1`, for which the EC50 is > 15 µM (inactive).

Turning to `Oc1c(CN2CCc3ccccc3C2)cc(Cl)c2cccnc12`, the EC50 was 4.84 µM.

As to `COc1ccc(-n2nc(C(=O)NCC(=O)NCCC3=CCCCC3)c3ccccc3c2=O)c(OC)c1`, the EC50 was > 15 µM (inactive).

Turning to `CCCCC(=O)NC(c1ccccc1)c1ccc2cccnc2c1O` (stereo not drawn), the EC50 was > 15 µM (inactive).

In the case of `COc1cccc(/C=N/NC(=O)C(=O)Nc2ccccc2OC(F)(F)C(F)F)c1O`, the EC50 is > 16 µM (inactive).

`Cc1ccc(OCC(=O)NNC(=S)NC(=O)C2CC2)c(C)c1`: the EC50 was > 15 µM (inactive).

As to `S=c1[nH]nc(C2CCCCC2)n1/N=C/c1ccc(Br)s1`, the EC50 was > 15 µM (inactive).

On to `COc1ccc(-c2nnc(NC(=O)c3ccc(F)cc3)o2)cc1`, for which the EC50 was > 15 µM (inactive).

Consider `CCOc1ccc(NC(=S)NNC(=O)c2ccc(Br)cc2)cc1`, for which the EC50 is > 16 µM (inactive).

Take `COc1ccc(C2C(C#N)=C(N)Oc3c2ccc2cccnc32)cc1OC` (stereo not drawn): the EC50 was > 15 µM (inactive).

Take `Cc1ccc(NC2=CC(=O)C(=O)c3ccccc32)cc1`: the EC50 was > 15 µM (inactive).

With `CCCCC(=O)NC(c1ccc(Cl)cc1)c1ccc2cccnc2c1O` (stereo not drawn), the concentration giving a half-maximal response (EC50) was 9.92 µM.

Regarding `Cn1c(N2CCOCC2)c(/C=N/OC(=O)c2ccc(F)cc2)c2ccccc21`, the EC50 is > 16 µM (inactive).

As for `Nc1[nH]c(=O)ncc1F`, the EC50 was > 16 µM (inactive).

As to `CC(C)(C)c1ccc(CSc2cnn(C(C)(C)C)c(=O)c2Cl)cc1`, the EC50 was > 16 µM (inactive).

With `O=C(N/N=C/c1sc2ccccc2c1O)c1cccc2ccccc12`, the EC50 is > 16 µM (inactive).

`CCC(=O)NC(c1ccc(C)cc1)c1cc([N+](=O)[O-])c2cccnc2c1O` (stereo not drawn): the EC50 was > 15 µM (inactive).

Take `CCc1cc(-c2n[nH]c(=S)n2-c2ccccc2C)cs1`: the EC50 is > 16 µM (inactive).

In the case of `CCCn1nnnc1NC(=O)c1ccc2ccccc2c1`, the EC50 was > 15 µM (inactive).

Turning to `COc1ccc(C(=O)NC(=S)NNC(=O)c2ccc(C)cc2)cc1`, the EC50 is > 15 µM (inactive).

Regarding `Cc1cccc(C(=O)CC(=O)c2cc(Cl)ccc2O)c1`, the EC50 was > 15 µM (inactive).

Turning to `O=C(Nc1nc(-c2ccccn2)cs1)c1ccc(Br)s1`, the EC50 was 10.2 µM.

Turning to `CCc1nnc(NC(=O)CN2CCN(c3nc(-c4ccccc4)cs3)CC2)s1`, the EC50 was > 15 µM (inactive).

For `O=c1c2cc(Br)ccc2nc(-c2cccc(C(F)(F)F)c2)n1O`, the EC50 was 14.3 µM.

Consider `C=CCNC(=S)Nc1sc2c(c1C(=O)OCC)CC(C)(CC)OC2` (stereo not drawn), for which the EC50 was > 15 µM (inactive).

Take `Cc1cc(C)n(-c2nc3ccccc3c(=O)n2OCC#N)n1`: the concentration giving a half-maximal response (EC50) was 11.2 µM.

Regarding `CC(=O)O/N=C/c1c(N2CCOCC2)n(C)c2ccccc12`, the EC50 was > 16 µM (inactive).

With `CC(C)(C)c1ccc(OCCCC(=O)NNC(=O)c2ccccc2O)cc1`, the EC50 is > 16 µM (inactive).

For the molecule `COc1ccc(-n2c(-c3cccc(C)c3[N+](=O)[O-])n[nH]c2=S)cc1`, the EC50 was > 15 µM (inactive).

For `Cc1c(Cl)ccc2c1NC(=O)[C@]21N[C@@H](Cc2ccccc2)[C@H]2C(=O)N(c3ccc(F)cc3)C(=O)[C@H]21`, the EC50 is > 16 µM (inactive).

Regarding `CC/C(=N/NC(=O)c1ccccc1O)c1c(C)[nH]n(-c2ccccc2)c1=O`, the EC50 was > 15 µM (inactive).

Take `CS/C(=N\S(=O)(=O)c1cccs1)Nc1ccc(Br)cc1F`: the EC50 is > 15 µM (inactive).

Consider `Nc1ccc(C(=O)N/N=C\c2ccc(OC(=O)c3ccccc3Cl)cc2)cc1`, for which the EC50 was > 16 µM (inactive).

Turning to `COc1ccc(-c2nnc(NC(=O)c3ccc(S(=O)(=O)N4CCc5ccccc5C4)cc3)o2)cc1`, the EC50 was > 15 µM (inactive).

Regarding `CCOc1ccc(NC(=O)c2cn(-c3ccc(OCC)cc3)c(=O)c3cc(OC)c(OC)cc23)cc1`, the EC50 is > 16 µM (inactive).

As to `CC[n+]1c(C=C2C=C(C)OC(C)=C2)sc2ccccc21`, the EC50 was > 16 µM (inactive).

For the molecule `CCCn1nc([N+](=O)[O-])c(C(C#N)c2nc3ccccc3s2)c(Cl)c1=O` (stereo not drawn), the EC50 is > 16 µM (inactive).

For the molecule `COc1ccc(C(=O)NNC(=S)NC(=O)c2ccc(Cl)cc2)cc1`, the EC50 is > 16 µM (inactive).

With `CCOC(=O)N1C(=O)C2(CCCCC2)N(c2ccccc2Cl)C1=S`, the half-maximal effective concentration (EC50) was 14.6 µM.

Turning to `CCNC(=S)NNC(=O)c1cc(-c2ccccc2C)nc2ccccc12`, the EC50 is > 16 µM (inactive).

`O=c1[nH]c(-c2ccccn2)nc(C(F)(F)F)c1Br`: the EC50 was > 15 µM (inactive).

In the case of `Cc1cc(C(=O)Nc2sc3c(c2C#N)CCCC3)no1`, the EC50 is > 16 µM (inactive).

Consider `Nc1c(S(=O)(=O)c2ccccc2)c2nc3ccccc3nc2n1CCN1CCOCC1`, for which the EC50 is > 16 µM (inactive).

On to `COc1ccc(/C=C/c2cc(-c3ccc(C)cc3)o[n+]2C)cc1`, for which the EC50 is > 16 µM (inactive).

`CC1(C)COCN1S(=O)(=O)c1ccc(C(=O)Nc2nnc(-c3ccc(Cl)s3)o2)cc1`: the EC50 was > 16 µM (inactive).

With `O=C(CC(=O)c1cccc([N+](=O)[O-])c1)Nc1ccccc1Cl`, the EC50 was > 16 µM (inactive).

Regarding `O=C(Nc1nnc(-c2ccc3c(c2)CCCC3)o1)c1ccccc1`, the EC50 is 9.67 µM.

For `CCC(C)c1ccc(O)c(NC(=S)NC(=O)c2cccnc2)c1` (stereo not drawn), the EC50 was > 15 µM (inactive).

Take `CC1CCC(C(C)C)C(OC(=O)Cn2c(-c3ccc(Br)cc3)[n+](C)c3ccccc32)C1` (stereo not drawn): the EC50 was > 16 µM (inactive).

For `CCCC(=O)NC(c1ccccc1)c1ccc2cccnc2c1O` (stereo not drawn), the EC50 is > 16 µM (inactive).

As for `COc1ccc(C2c3ccc4ccccc4c3Oc3ncn(CCN4CCOCC4)c(=N)c32)cc1` (stereo not drawn), the EC50 is > 16 µM (inactive).

Regarding `CCc1ccc(C2c3[nH]c4ccccc4c3CCN2C(=O)c2ccc(=O)n(C)n2)cc1` (stereo not drawn), the EC50 was > 16 µM (inactive).

Turning to `COc1ccc(CCNc2ncnc3sc(C)cc23)cc1OC`, the EC50 was > 15 µM (inactive).

On to `Cc1ccccc1C(=O)O/N=C/c1c(N2CCOCC2)n(C)c2ccccc12`, for which the EC50 is > 16 µM (inactive).

For `Cc1ccc(C)c(-c2nnc(NC(=O)c3ccco3)o2)c1`, the EC50 is > 16 µM (inactive).

`O=c1ccc(N=Nc2ccccc2)ccc1O`: the half-maximal effective concentration (EC50) is 3.88 µM.

Turning to `O=[N+]([O-])c1ccc(O)c(/C=N/Nc2ccc(Cl)nn2)c1`, the concentration giving a half-maximal response (EC50) is 9.85 µM.

In the case of `CCc1nnc(NC(=O)CSc2ncc(-c3ccccc3)n2C)s1`, the EC50 is > 15 µM (inactive).

`COC(=O)Cn1nc(-c2ccccc2)c2ccccc21`: the EC50 is > 15 µM (inactive).

Regarding `O=C(Nc1nnc(-c2ccncc2)o1)c1ccc2ccccc2c1`, the EC50 was > 15 µM (inactive).

Turning to `C=CCOC(=O)c1sc(NC(=O)c2ccco2)nc1C`, the EC50 was > 15 µM (inactive).

For `COC(=O)c1ccc(COc2ccc(/C=C(\C#N)c3nc4ccccc4[nH]3)cc2OC)o1`, the EC50 was > 16 µM (inactive).

Turning to `CC1(O)CC(c2ccc(Cl)cc2)=NN1C(=O)c1ccc([N+](=O)[O-])cc1` (stereo not drawn), the EC50 was > 16 µM (inactive).

For `COCCn1c(=O)[nH]c(=O)c2cc(C(=O)c3cc(Cl)ccc3O)cnc21`, the EC50 is > 16 µM (inactive).

Regarding `Cc1ccc(C(=O)c2coc3c2C(=O)C(=O)c2ccccc2-3)cc1`, the 50% effective concentration (EC50) was 10.7 µM.

Consider `O=C(NNC(=S)NC(=O)c1ccc(Br)cc1)c1ccc([N+](=O)[O-])cc1`, for which the EC50 was > 16 µM (inactive).

For the molecule `CCN1/C(=C/c2ccc3cc(C)ccc3[n+]2CC)Sc2ccc3sccc3c21`, the 50% effective concentration (EC50) is 1.75 µM.

Consider `Cc1c(Cl)c([N+](=O)[O-])nn1Cc1ccc(C(=O)N/N=C\c2cc(Cl)ccc2O)o1`, for which the EC50 was > 16 µM (inactive).

For the molecule `CNC(=O)Nc1cc(C(F)(F)F)cc(C(F)(F)F)c1`, the EC50 is > 15 µM (inactive).

Turning to `Cc1ccc2nc(N3C(=O)C(O)=C(C(=O)c4ccco4)C3c3ccc(C)o3)sc2c1` (stereo not drawn), the EC50 was > 15 µM (inactive).

As for `CCCC(=O)NC(c1ccc(N(C)C)cc1)c1ccc2cccnc2c1O` (stereo not drawn), the EC50 is > 16 µM (inactive).

In the case of `C[n+]1c2n(c3ccccc31)N=C(c1ccc(-c3ccccc3)cc1)CS2`, the EC50 is > 16 µM (inactive).

As for `Cc1c(O)c2c3c(cccc3c1O)C(=O)N(c1ccccc1)C2=O`, the EC50 was > 15 µM (inactive).

Take `CC(C)Cc1nc2oc3c(=O)[nH]cnc3c2c2c1CCCC2`: the EC50 was > 15 µM (inactive).

For `CCOC(=O)c1c(NC(=S)NCC2CCCO2)sc(C)c1C` (stereo not drawn), the EC50 is > 16 µM (inactive).

`COc1ccc(OC)c(C2C(C(=O)c3cc4ccccc4o3)=C(O)C(=O)N2c2cc(C)on2)c1` (stereo not drawn): the EC50 is > 15 µM (inactive).

In the case of `CCC(=O)NC(c1ccc(OC)cc1)c1cc(Cl)c2cccnc2c1O` (stereo not drawn), the EC50 is > 16 µM (inactive).

On to `CCCC(=O)NC(c1ccccc1OC)c1ccc2cccnc2c1O` (stereo not drawn), for which the EC50 is > 16 µM (inactive).

Regarding `CCc1ccccc1NC(=S)N=Nc1c(O)n(C)c2ccc(S(=O)(=O)N3CCOCC3)cc12`, the EC50 was > 15 µM (inactive).

`Cc1cc2ccccn2c1C(C[N+](=O)[O-])c1c(F)cccc1Cl` (stereo not drawn): the EC50 was 2.82 µM.

In the case of `Oc1c(C(Nc2nc3ccccc3s2)c2ccco2)ccc2cccnc12` (stereo not drawn), the concentration giving a half-maximal response (EC50) was 4.68 µM.

Regarding `COc1ccc(C(c2c(O)ccc3ccccc23)N2CCOCC2)c(OC)c1` (stereo not drawn), the EC50 was > 16 µM (inactive).

For the molecule `C[C@]12CCC3[C@@H](CC[C@H]4C[C@@H](O)CC[C@]34C)C1CCC2=O` (stereo partly drawn), the EC50 is > 15 µM (inactive).

In the case of `CCC(=O)NC(c1cccs1)c1cc([N+](=O)[O-])c2cccnc2c1O` (stereo not drawn), the EC50 was > 15 µM (inactive).

As for `COc1ccc(C)cc1N=Nc1ccc(O)c2ncccc12`, the EC50 was 2.77 µM.

In the case of `O=C(N/N=C/c1cc2c3c(c1O)CCCN3CCC2)c1ccccc1O`, the EC50 was 2.15 µM.
